Active and inactive are the calls of the source. The rule behind the calls is not given here.
Columns and labels:
[1] = Cytotoxicity against African green monkey Vero cells; format: cell-based; conditions: chlorocebus sabaeus
[2] = Toxicity in Hamster rat infected with SARS-CoV-2 C-Tan-nCoV Wuhan strain 01 assessed as body weight loss at 5 mg/kg, inh measured after 4 days; format: organism-based; conditions: in vivo, inhaled_or_intranasal, 96 h, time 4 day
SARS-CoV-2 [3] = experiment: Antiviral activity against SARS-CoV-2 C-Tan-nCoV Wuhan strain 01 infected in African green monkey Vero cells assessed as inhibition of viral replication measured after 48 hrs by RT-qPCR method; format: functional, organism-based; conditions: Severe acute respiratory syndrome coronavirus 2, C-Tan-nCoV Wuhan strain 01, Vero
[4] = Safety index, ratio of CC50 for African green monkey Vero cells to EC50 for antiviral activity against SARS-CoV-2 C-Tan-nCoV Wuhan strain 01 infected in African green monkey Vero cells; format: toxicity; conditions: read-out: Ratio CC50/EC50
[5] = Toxicity in Hamster rat infected with SARS-CoV-2 C-Tan-nCoV Wuhan strain 01 assessed as body weight loss at 25 mg/kg, inh measured after 4 days; format: organism-based; conditions: in vivo, inhaled_or_intranasal, 96 h, time 4 day
SARS-CoV-2 [6] = experiment: Antiviral activity against SARS-CoV-2 C-Tan-nCoV Wuhan strain 01 virus infected in Hamster rat assessed as widening of alveolar septum at 25 mg/kg, inh administered for 3 days starting from 1 hr post infection and measured on day 4 by histopathological analysis; format: functional, organism-based; conditions: Severe acute respiratory syndrome coronavirus 2, time 4.0 day
SARS-CoV-2 [7] = experiment: Antiviral activity against SARS-CoV-2 C-Tan-nCoV Wuhan strain 01 virus infected in Hamster rat assessed as widening of bronchus at 25 mg/kg, inh administered for 3 days starting from 1 hr post infection and measured on day 4 by histopathological analysis; format: functional, organism-based; conditions: Severe acute respiratory syndrome coronavirus 2, time 4.0 day
SARS-CoV-2 [8] = experiment: Antiviral activity against SARS-CoV-2 C-Tan-nCoV Wuhan strain 01 virus infected in Hamster rat assessed as widening of perivascular interstitium at 25 mg/kg, inh administered for 3 days starting from 1 hr post infection and measured on day 4 by histopathological analysis; format: functional, organism-based; conditions: Severe acute respiratory syndrome coronavirus 2, time 4.0 day
SARS-CoV-2 [9] = experiment: Antiviral activity against SARS-CoV-2 C-Tan-nCoV Wuhan strain 01 virus infected in Hamster rat assessed as infiltration of lymphocytes at 25 mg/kg, inh administered for 3 days starting from 1 hr post infection and measured on day 4 by histopathological analysis; format: functional, organism-based; conditions: Severe acute respiratory syndrome coronavirus 2, time 4.0 day
SARS-CoV-2 [10] = experiment: Antiviral activity against SARS-CoV-2 C-Tan-nCoV Wuhan strain 01 virus infected in Hamster rat assessed as infiltration of neutrophils at 25 mg/kg, inh administered for 3 days starting from 1 hr post infection and measured on day 4 by histopathological analysis; format: functional, organism-based; conditions: Severe acute respiratory syndrome coronavirus 2, time 4.0 day
SARS-CoV-2 [11] = experiment: Antiviral activity against SARS-CoV-2 C-Tan-nCoV Wuhan strain 01 virus infected in Hamster rat assessed as widening of alveolar septum at 5 mg/kg, inh administered for 3 days starting from 1 hr post infection and measured on day 4 by histopathological analysis; format: functional, organism-based; conditions: Severe acute respiratory syndrome coronavirus 2, time 4.0 day
SARS-CoV-2 [12] = experiment: Antiviral activity against SARS-CoV-2 C-Tan-nCoV Wuhan strain 01 virus infected in Hamster rat assessed as widening of bronchus at 5 mg/kg, inh administered for 3 days starting from 1 hr post infection and measured on day 4 by histopathological analysis; format: functional, organism-based; conditions: Severe acute respiratory syndrome coronavirus 2, time 4.0 day
SARS-CoV-2 [13] = experiment: Antiviral activity against SARS-CoV-2 C-Tan-nCoV Wuhan strain 01 virus infected in Hamster rat assessed as widening of perivascular interstitium at 5 mg/kg, inh administered for 3 days starting from 1 hr post infection and measured on day 4 by histopathological analysis; format: functional, organism-based; conditions: Severe acute respiratory syndrome coronavirus 2, time 4.0 day
SARS-CoV-2 [14] = experiment: Antiviral activity against SARS-CoV-2 C-Tan-nCoV Wuhan strain 01 virus infected in Hamster rat assessed as infiltration of lymphocytes at 5 mg/kg, inh administered for 3 days starting from 1 hr post infection and measured on day 4 by histopathological analysis; format: functional, organism-based; conditions: Severe acute respiratory syndrome coronavirus 2, time 4.0 day
SARS-CoV-2 [15] = experiment: Antiviral activity against SARS-CoV-2 C-Tan-nCoV Wuhan strain 01 virus infected in Hamster rat assessed as infiltration of neutrophils at 5 mg/kg, inh administered for 3 days starting from 1 hr post infection and measured on day 4 by histopathological analysis; format: functional, organism-based; conditions: Severe acute respiratory syndrome coronavirus 2, time 4.0 day

| SMILES | CC50 [1] [nM] | Activity [2] | EC50 (SARS-CoV-2 [3]) [nM] | selectivity ratio [4] | Activity [5] | Activity (SARS-CoV-2 [6]) | Activity (SARS-CoV-2 [7]) | Activity (SARS-CoV-2 [8]) | Activity (SARS-CoV-2 [9]) | Activity (SARS-CoV-2 [10]) | Activity (SARS-CoV-2 [11]) | Activity (SARS-CoV-2 [12]) | Activity (SARS-CoV-2 [13]) | Activity (SARS-CoV-2 [14]) | Activity (SARS-CoV-2 [15]) |
| --- | --- | --- | --- | --- | --- | --- | --- | --- | --- | --- | --- | --- | --- | --- | --- |
| COc1cc2c3c(c4cc(OC)c(OC)cc4c2cc1OC)CN1CCC[C@H]1C3.O=C(O)C[C@@H](O)C(=O)O | 26200 | Non-Toxic | 30 | 268 |  |  |  |  |  |  |  |  |  |  |  |
| CCC(CC)COC(=O)[C@H](C)N[P@](=O)(OC[C@H]1O[C@@](C#N)(c2ccc3c(N)ncnn23)[C@H](O)[C@@H]1O)Oc1ccccc1 [REMDESIVIR] |  |  | 800 |  | Non-Toxic | Active | Active | Active | Active | Active | Active | Active | Active | Active | Active |

Reference: ChEMBL document CHEMBL4842391, “Discovery and Nanosized Preparations of (S,R)-Tylophorine Malate as Novel anti-SARS-CoV-2 Agents” (ACS Med Chem Lett, 2021)
